# Results as given in patent publication US20250319145A1, “EXTRACT WITH ANTI-INFLAMMATORY EFFECT” (Medizinische Universitat Innsbruck, priority 2021, published 2025).
# Assays:
# IKKβ Kinase = target: T1, IKKβ Kinase (Homo sapiens, UniProt O14920); experiment: In vitro immunoprecipitation IKKβ kinase assay with IκBα as substrate (autoradiography); assay type: biochemical; details: 1.6, 2.8 and 6% vs DMSO control; FIG. 9
# T1 construct: made in house; host or cells: HEK 293T cells (transient transfection, anti-HA immunoprecipitation)
# T1 sequence (O14920 1-756): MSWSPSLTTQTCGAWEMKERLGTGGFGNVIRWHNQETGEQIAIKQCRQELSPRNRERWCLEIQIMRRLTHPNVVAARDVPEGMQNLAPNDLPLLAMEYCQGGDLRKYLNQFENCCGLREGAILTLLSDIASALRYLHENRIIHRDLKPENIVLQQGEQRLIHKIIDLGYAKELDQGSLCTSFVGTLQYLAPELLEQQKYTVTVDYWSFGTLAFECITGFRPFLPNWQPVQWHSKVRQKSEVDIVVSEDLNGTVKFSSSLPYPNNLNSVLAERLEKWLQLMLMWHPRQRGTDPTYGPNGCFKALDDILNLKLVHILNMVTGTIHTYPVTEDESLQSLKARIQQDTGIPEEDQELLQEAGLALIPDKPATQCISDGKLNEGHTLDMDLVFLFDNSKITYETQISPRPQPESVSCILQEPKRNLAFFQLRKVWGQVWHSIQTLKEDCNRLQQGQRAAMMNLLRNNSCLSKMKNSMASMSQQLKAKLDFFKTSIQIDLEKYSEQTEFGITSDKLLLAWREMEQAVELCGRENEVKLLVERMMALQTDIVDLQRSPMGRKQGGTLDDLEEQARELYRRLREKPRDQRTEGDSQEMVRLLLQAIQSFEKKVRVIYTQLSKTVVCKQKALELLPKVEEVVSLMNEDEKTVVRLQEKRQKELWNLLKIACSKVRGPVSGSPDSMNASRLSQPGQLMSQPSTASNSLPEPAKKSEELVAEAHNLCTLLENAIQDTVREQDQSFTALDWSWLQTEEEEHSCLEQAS
# Experimental: The IKK complex subunit IKKβ is responsible for the phosphorylation of IκBα and it's targeting for degradation upon TNFα induction. Therefore, it has been investigated whether the extracts inhibit IKKβ. […] The kinase assay was based on quantifying the activity of the kinase IKKβ via autoradiography.
# Specifically, HEK 293T cells were transfected with the HA-IKKβ construct. Cells were washed with ice-cold phosphate-buffered saline (PBS) and extracted with lysis buffer containing 50 mM HEPES (pH 7.5), 150 mM NaCl, 1% (vol/vol) Nonidet P-40, 2 mM EDTA, 50 mM sodium fluoride, 10 mM sodium pyrophosphate, 1 mM sodium orthovanadate, 50 μg of leupeptin (Boehringer Mannheim)/ml, 0.5% aprotinin (Sigma), 1 mM phenylmethylsulphonyl fluoride (Sigma), and 3 mM benzamidine (Sigma). 300 ng of total protein were immunoprecipitated with 2 μg of anti-HA antibodies and immune complexes were collected using protein A-Sepharose beads (Amersham Pharmacia Biotech). Immune complexes were washed three times with lysis buffer followed by a single wash with high salt buffer (500 mM NaCl) and kinase assay buffer (50 mM HEPES [pH 7.5], 10 mM MgCl2, 1 mM dithiothreitol, 10 mM β-glycerophosphate). […] Samples were subjected to 10% SDS-PAGE, and the amount of ^32P incorporated into the IKKβ and IκBα proteins was assessed by autoradiography (FIG. 4). […]
# [1] = tested on: reconstructed human epidermis (RHE)-models; experiment: Cytokine release in reconstituted human epidermis model after TNFα; assay type: cell-based; details: 0.75 ng/ml TNFα, extract 10 μg/ml in medium, 24 h and 48 h
# Experimental: The bioactivity of the extract of Chromochloris zofingiensis (2022C) was tested in human epidermis equivalents by measuring cytokine secretion in response to TNFα treatment.
# The extract was tested in a physiological relevant set-up represented by reconstructed human epidermis (RHE)-models (FIG. 2), (W. Pixelproduction, epiCS—CellSystems GmbH. [Online]. Available: https://cellsystems.de/cells-and-media/c/epics (accessed: Oct. 2 2020)), purchased from Cell Systems. epiCS RHE models are validated for the classification of compounds according to the OECD test guideline 431. […]
# The secretion of relevant pro-inflammatory cytokines of RHE-models (from Cell Systems Biotechnology), were quantified after induction with 0.75 ng/ml TNFα and treatment with DMSO, WFA or the extract of Chromochloris zofingiensis in a concentration of 10 μg/ml in DMSO.
# After culturing the keratinocyte cell layer in cell culture inserts (0.6 cm^2) under submerged conditions, the tissues were lifted to the air-liquid interphase to induce differentiation, epithelial stratification and cornification. […] The cytokine release was evaluated 24 h and 48 h after the TNFα treatment. The secretion of the cytokines IL-1ra, RANTES, IL-1α, GM-CSF, TSLP, IP-10, IL-18, IL-6, IL-8, IL-10, MCP-1, IL-1β, TNFα and INF-β was measured. […]
direct inhibition of the IKKβ kinase (IKKβ Kinase),Molecule,"release of IL-10, MCP-1, IP-10 and RANTES [1]"
no inhibition,"diacylglyceryl-N,N,N-trimethylhomoserine [DGTS]",–
–,"CC1=C(CO)C(=O)O[C@@H]([C@@H](C)[C@H]2CC[C@H]3[C@@H]4C[C@H]5O[C@]56[C@@H](O)C=CC(=O)[C@]6(C)[C@H]4CC[C@]23C)C1 [WFA, Withaferin A]",substantial decrease
